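Cultured in 96-well plates, cells were exposed to test compound for 48 hours across five concentrations. At the GI50, growth is halved.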 Active and inactive are the calls of the source. Cut-off read from the data, not from the text of the source: active = GI50 up to about 1.1 µM and inactive = higher.
Key:
Assay in all cases: growth of human tumour cells (NCI), 48 h
[1] = test system: NCI-H522
[2] = test system: SNB-75
[3] = test system: ACHN
[4] = test system: OVCAR-8
[5] = test system: NCI-H23
[6] = test system: CAKI-1
[7] = test system: U-251
[8] = test system: TK-10
[9] = test system: SK-MEL-2
[10] = test system: NCI-H226
[11] = test system: HCC 2998
[12] = test system: COLO 205
[13] = test system: MOLT-4
[14] = test system: HCT-15
[15] = test system: SN12C
[16] = test system: HOP-92
[17] = test system: K562
[18] = test system: SK-OV-3
[19] = test system: UACC-62
[20] = test system: RXF 393

With `Cn1c2ccccc2n2c(=O)c(-c3ccc(O)cc3)nnc12` the GI50 [1] was 96.8 µM (inactive), the GI50 [2] was 25.8 µM (inactive) and the GI50 [3] was 70 µM (inactive). For the same molecule, the GI50 [4] was > 100 µM (inactive), the GI50 [5] was > 100 µM (inactive) and the GI50 [6] was 27.7 µM (inactive). For the same molecule, the GI50 [7] was 28.2 µM (inactive), the GI50 [8] was > 100 µM (inactive) and the GI50 [9] was > 100 µM (inactive). The GI50 [10] was 46.6 µM (inactive), the GI50 [11] was > 100 µM (inactive) and the GI50 [12] was > 100 µM (inactive). For the same molecule, the GI50 [13] was > 100 µM (inactive), the GI50 [14] was over 100 µM and the GI50 [15] was > 100 µM (inactive). The GI50 [16] was > 100 µM (inactive).
In the case of `O=[N+]([O-])c1ccc(-c2ccc(-c3csc(Nc4ccccn4)n3)o2)cc1`, the GI50 [1] is reported as > 100 µM (inactive), the GI50 [17] is reported as 66.5 µM (inactive) and the GI50 [2] is reported as > 100 µM (inactive). The GI50 [3] was 45.8 µM (inactive), the GI50 [4] was 64.7 µM (inactive) and the GI50 [5] was > 10 µM (inactive). For the same molecule, the GI50 [6] was > 100 µM (inactive), the GI50 [7] was 13.8 µM (inactive) and the GI50 [8] was 26.9 µM (inactive). For the same molecule, the GI50 [9] was > 100 µM (inactive), the GI50 [18] was 14.3 µM (inactive) and the GI50 [19] was 29.9 µM (inactive). The GI50 [11] was > 100 µM (inactive), the GI50 [12] was > 100 µM (inactive) and the GI50 [13] was > 100 µM (inactive). The GI50 [14] was 79.8 µM, the GI50 [15] was 41.4 µM (inactive) and the GI50 [16] was > 100 µM (inactive).
With `Cn1c(=O)c2c(nc3n2C(CCl)CO3)n(C)c1=O` (stereo unspecified) the GI50 [1] was > 100 µM (inactive), the GI50 [17] was > 100 µM (inactive) and the GI50 [2] was > 100 µM (inactive). The GI50 [3] was > 100 µM (inactive), the GI50 [4] was > 100 µM (inactive) and the GI50 [5] was > 100 µM (inactive). The GI50 [6] was > 100 µM (inactive), the GI50 [7] was > 100 µM (inactive) and the GI50 [8] was > 100 µM (inactive). The GI50 [9] was > 100 µM (inactive), the GI50 [18] was > 100 µM (inactive) and the GI50 [19] was > 100 µM (inactive). For the same molecule, the GI50 [10] was > 100 µM (inactive), the GI50 [11] was > 100 µM (inactive) and the GI50 [12] was > 100 µM (inactive). For the same molecule, the GI50 [13] was > 100 µM (inactive), the GI50 [14] was over 100 µM and the GI50 [15] was > 100 µM (inactive). The GI50 [16] was > 100 µM (inactive).
For `CC(C)(C)c1ccc(OCCOCCOc2ccc(C(C)(C)C)cc2S(N)(=O)=O)c(S(N)(=O)=O)c1`, the GI50 [17] was > 100 µM (inactive), the GI50 [2] was > 100 µM (inactive) and the GI50 [3] was 29.1 µM (inactive). The GI50 [4] was > 100 µM (inactive), the GI50 [20] was 20.2 µM (inactive) and the GI50 [5] was > 100 µM (inactive). The GI50 [6] was > 100 µM (inactive), the GI50 [7] was > 100 µM (inactive) and the GI50 [8] was > 100 µM (inactive). For the same molecule, the GI50 [9] was 67.8 µM (inactive), the GI50 [18] was > 100 µM (inactive) and the GI50 [19] was 52.1 µM (inactive). The GI50 [10] was 40.7 µM (inactive), the GI50 [11] was > 100 µM (inactive) and the GI50 [12] was > 100 µM (inactive). For the same molecule, the GI50 [13] was 4.46 µM (inactive), the GI50 [14] was 45.6 µM and the GI50 [15] was > 100 µM (inactive). For the same molecule, the GI50 [16] was 24.6 µM (inactive).
`CC12CCCC(C#N)(C1)OC2=O` (stereo unspecified) was tested, and the GI50 [1] was > 100 µM (inactive), the GI50 [17] was > 100 µM (inactive) and the GI50 [2] was > 100 µM (inactive). For the same molecule, the GI50 [3] was > 100 µM (inactive), the GI50 [4] was > 100 µM (inactive) and the GI50 [20] was > 100 µM (inactive). The GI50 [5] was > 100 µM (inactive), the GI50 [6] was > 100 µM (inactive) and the GI50 [7] was > 100 µM (inactive). For the same molecule, the GI50 [8] was > 100 µM (inactive), the GI50 [9] was > 100 µM (inactive) and the GI50 [18] was > 100 µM (inactive). The GI50 [19] was > 100 µM (inactive), the GI50 [10] was > 100 µM (inactive) and the GI50 [13] was > 100 µM (inactive). The GI50 [15] was > 100 µM (inactive) and the GI50 [16] was > 100 µM (inactive).
With `C=C1CC2CCCC12C=O` (stereo unspecified) the GI50 [1] was > 10 µM (inactive), the GI50 [17] was > 10 µM (inactive) and the GI50 [2] was > 10 µM (inactive). The GI50 [3] was > 10 µM (inactive), the GI50 [4] was > 10 µM (inactive) and the GI50 [5] was > 10 µM (inactive). For the same molecule, the GI50 [6] was > 10 µM (inactive), the GI50 [7] was > 10 µM (inactive) and the GI50 [8] was > 10 µM (inactive). The GI50 [18] was > 10 µM (inactive), the GI50 [19] was > 10 µM (inactive) and the GI50 [11] was > 10 µM (inactive). For the same molecule, the GI50 [12] was > 10 µM (inactive), the GI50 [13] was > 10 µM (inactive) and the GI50 [14] was over 10 µM. The GI50 [15] was > 10 µM (inactive) and the GI50 [16] was > 10 µM (inactive).
In the case of `O=c1[nH]c(-c2ccc([N+](=O)[O-])cc2)nc2ccc(Cl)cc12`, the GI50 [17] is reported as 17.9 µM (inactive), the GI50 [2] is reported as 57.5 µM (inactive) and the GI50 [3] is reported as > 100 µM (inactive). For the same molecule, the GI50 [4] was > 100 µM (inactive), the GI50 [20] was 78.3 µM (inactive) and the GI50 [5] was > 100 µM (inactive). The GI50 [7] was 54.6 µM (inactive), the GI50 [8] was 51.8 µM (inactive) and the GI50 [9] was > 100 µM (inactive). For the same molecule, the GI50 [18] was 77.3 µM (inactive), the GI50 [19] was > 100 µM (inactive) and the GI50 [10] was > 10 µM (inactive). For the same molecule, the GI50 [11] was > 100 µM (inactive), the GI50 [12] was > 100 µM (inactive) and the GI50 [13] was 23.6 µM (inactive). For the same molecule, the GI50 [14] was 94.4 µM, the GI50 [15] was > 100 µM (inactive) and the GI50 [16] was 26.8 µM (inactive).
`CCOC(=O)CC[C@H](NC(=O)N[C@H](C)c1ccccc1)C(=O)OCC` was tested, and the GI50 [17] was 36.1 µM (inactive), the GI50 [3] was 53.5 µM (inactive) and the GI50 [4] was > 100 µM (inactive). For the same molecule, the GI50 [5] was 89.1 µM (inactive), the GI50 [6] was > 100 µM (inactive) and the GI50 [7] was 39.8 µM (inactive). For the same molecule, the GI50 [8] was 42.8 µM (inactive), the GI50 [9] was 23.4 µM (inactive) and the GI50 [18] was > 100 µM (inactive). For the same molecule, the GI50 [19] was 16.1 µM (inactive), the GI50 [10] was > 100 µM (inactive) and the GI50 [11] was 25.9 µM (inactive). The GI50 [12] was 18.7 µM (inactive), the GI50 [13] was 20.1 µM (inactive) and the GI50 [14] was over 100 µM. For the same molecule, the GI50 [15] was 40.6 µM (inactive) and the GI50 [16] was 22 µM (inactive).
